Results reported in PubChem BioAssay (NCI).
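In this assay, cells in 96-well plates receive the compound at five concentrations for 48 hours. Endpoints are linearly interpolated between the surrounding concentrations. GI50 marks 50% less growth. TGI denotes the concentration required for complete inhibition of growth.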

Columns and labels:
Test in all cases: DTP human tumour cell line panel, 48 h
T-47D breast = system: T-47D breast
MDA-MB-231 breast = system: MDA-MB-231 breast
SF-539 CNS = system: SF-539 CNS
MCF7 breast = system: MCF7 breast
PC-3 prostate = system: PC-3 prostate
SF-268 CNS = system: SF-268 CNS
HCT-116 colon = system: HCT-116 colon
A549 NSCLC = system: A549 NSCLC
OVCAR-8 ovarian = system: OVCAR-8 ovarian
MALME-3M melanoma = system: MALME-3M melanoma

Compound	TGI (T-47D breast) [µM]	TGI (MDA-MB-231 breast) [µM]	TGI (SF-539 CNS) [µM]	TGI (MCF7 breast) [µM]	TGI (PC-3 prostate) [µM]	TGI (SF-268 CNS) [µM]	TGI (HCT-116 colon) [µM]	TGI (A549 NSCLC) [µM]	TGI (OVCAR-8 ovarian) [µM]	TGI (MALME-3M melanoma) [µM]	GI50 (T-47D breast) [µM]	GI50 (MDA-MB-231 breast) [nM]	GI50 (SF-539 CNS) [nM]	GI50 (PC-3 prostate) [µM]	GI50 (SF-268 CNS) [nM]	GI50 (HCT-116 colon) [µM]	GI50 (A549 NSCLC) [µM]	GI50 (OVCAR-8 ovarian) [nM]	GI50 (MALME-3M melanoma) [nM]	GI50 (MCF7 breast) [µM]
CCOC(=O)C(NC(=O)CC)(Nc1ccc(S(=O)(=O)Nc2onc(C)c2C)cc1)C(F)(F)F (centres undefined)	> 100	> 100	> 100	> 100	> 100	> 100	> 100	> 100	> 100	> 100										
O=S(=O)(c1ccc(-c2nnc(-c3ccc(F)cc3)o2)cc1)c1ccc(-c2nnc(-c3ccc(F)cc3)o2)cc1	> 100		> 100	> 100	> 100	> 100	> 100	> 100	> 100	> 100										
O=C1Nc2cc([N+](=O)[O-])c(Br)cc2C1=O			41			44.1		> 100	31.6	46.4										
COc1ccc2c(c1)OCCc1cn[nH]c1-2			> 100	> 100		> 100	> 100	> 100	> 100	> 100										
CC(=O)NNc1nc(C)c(C(=O)NNC(=O)C(=O)Nc2cccc(C(C)=O)c2)s1			39.8			54	> 100	> 100	39.4											
Cc1ccc(Sc2ccccc2[N+](=O)[O-])cc1			> 100			> 100	> 100	> 100	> 100	> 100										
COc1ccc2nc3c(c(NCCCN(C)C)c2c1)CCCC3			30.8				17.2	49.9	36.4	33.9										
OCC(CCc1ccccc1I)C1=CCC2(CC1)OCCO2 (centres undefined)	42.3	62.9	32.5	55.1	52.5	50		62.4	43.1	33.6										
C[S+](C)CC1OC(n2cnc3c(N)ncnc32)C(O)C1O (centres undefined)			> 225	> 225		> 225	> 225	> 225	> 225	> 225										
CCOC(=O)c1cc2c(OCc3ccccc3)c(OC)cc3c2c(n1)N(c1ccc(OC)cc1)C(C)C3 (centres undefined)						> 50	> 50	> 50	> 50	> 50										
CC1(C)C2CCC3(OCCO3)C1C(O)C2 (centres undefined)			> 100			> 100	> 100	> 100	> 100	> 100										
CN1N=C(c2ccncc2)OC1c1cccc(C(F)(F)F)c1 (centres undefined)	> 100	> 100	65.8		> 100	> 100	> 100	> 100	> 100											
O=C(O)CC[P+](c1ccccc1)(c1ccccc1)c1ccccc1	> 100	> 100		> 100	> 100	> 100	> 100	> 100	> 100	> 100										
COc1cccc(/C(Cl)=C(\C=O)c2cccc(OC)c2)c1			37.1			21.2	15	40.8	30.5	12.8										
C=C[C@@]1(O)CCCC[C@@H]1CC(Sc1ccccc1)Sc1ccccc1	27.8	33.2		> 100	29.1	29	31.4	36.2	34.1	28										
CCOC(=O)CCC1(C(=O)OCC)CCCC1=O (centres undefined)			> 100			> 100	> 100	> 100	> 100	> 100										
Cc1ccc(N(O)C(C)(C)C)cc1			> 100	> 100		> 100	> 100	> 100	> 100	> 100										
COC(=O)C1=C(O)C(C(=O)OC)[C@]2(O)[C@@H](C(=O)OC)[C@H]1C[C@@H](c1ccccc1)[C@@H]2C(=O)OC (some centres undefined)	> 100	49.3	25.5	> 100		8.12	21.8			45.1										
COC(=O)c1c(C)cccc1C1CN=NC12Cc1ccc(C)c(C)c1C2=O (centres undefined)	13.1	> 100	> 100	> 100		> 100	45.6	> 100	> 100	> 100										
NC(=O)c1cc(N(CCO)CCO)c([N+](=O)[O-])cc1[N+](=O)[O-]	> 100		> 100	> 100	> 100	> 100	> 100	> 100		> 100										
Cc1cn(C2CC(CCCO)C(CO)O2)c(=O)[nH]c1=O (centres undefined)						> 100	> 100	> 100	> 100	> 100										
Cc1ccnc2nc(N)ccc12	> 100	> 100	> 100		> 100	> 100	> 100	> 100	> 100	> 100										
CC1(C)C(CCO)CC1n1ccc(=O)[nH]c1=O (centres undefined)	> 100	> 100	> 100	> 100	> 100	> 100	> 100	> 100												
CC(C)OP(=O)(OC(C)C)C1=NN(c2ccc([N+](=O)[O-])cc2)C(P(=O)(OC(C)C)OC(C)C)=NN1c1ccc([N+](=O)[O-])cc1			> 100			> 100	> 100	> 100	> 100	> 100										
[O-][n+]1c(CN2CCCCC2)nc2cccc3c2c1-c1ccccc1-3		95.6	88.4	76.5	> 100		38.7	33.1	98.2	29										

Compound	TGI (T-47D breast) [µM]	TGI (MDA-MB-231 breast) [µM]	TGI (SF-539 CNS) [µM]	TGI (MCF7 breast) [µM]	TGI (PC-3 prostate) [µM]	TGI (SF-268 CNS) [µM]	TGI (HCT-116 colon) [µM]	TGI (A549 NSCLC) [µM]	TGI (OVCAR-8 ovarian) [µM]	TGI (MALME-3M melanoma) [µM]	GI50 (T-47D breast) [µM]	GI50 (MDA-MB-231 breast) [nM]	GI50 (SF-539 CNS) [nM]	GI50 (PC-3 prostate) [µM]	GI50 (SF-268 CNS) [nM]	GI50 (HCT-116 colon) [µM]	GI50 (A549 NSCLC) [µM]	GI50 (OVCAR-8 ovarian) [nM]	GI50 (MALME-3M melanoma) [nM]	GI50 (MCF7 breast) [µM]
CCN(CC)CCCNC(=O)c1cc2cc(NC(=O)c3cc4cc([N+](=O)[O-])ccc4[nH]3)ccc2[nH]1	> 100	> 100	> 100	> 100	> 100	> 100	> 100	> 100	> 100											
C=C1[C@@](C)([C@@H]2CCCS2)[C@H]2C(C)=C[C@]1(C)n1c(=O)n(-c3ccccc3)c(=O)n12	> 100	> 100	> 100	> 100	> 100	> 100	> 100	> 100		> 100										
Cc1cccc2c1c1ccc3c(c1n2C)C(=O)C=CC3=O			15			36.5	15.1	37.7	32.1	14										
O=C1C=C2CCC[C@H]3OC(=O)C[C@@]23CC1	> 100	> 100	> 100		> 100	> 100	> 100	> 100		> 100										
CCOC(=O)C(C)Sc1nnc(COc2ccccc2OC)n1-c1ccccc1 (centres undefined)			> 100			> 100	> 100	> 100	> 100	> 100										
Cc1ccc(-c2nnc(CCCCCCCCc3nnc(-c4ccc(C)cc4O)n3N)n2N)c(O)c1	> 100	> 100	> 100	> 100		> 100	> 100	> 100	> 100	> 100										
COC(=O)C(=O)C(C(=O)C(=O)Nc1cccc([N+](=O)[O-])c1)c1nc2ccc(Cl)cc2[nH]c1=O (centres undefined)		> 100	> 100	> 100	> 100	> 100	> 100	> 100	> 100											
COC(=O)CC(C(C(=O)OCc1ccccc1)C(C)O)N1C(=O)OC(c2ccccc2)C1c1ccccc1 (centres undefined)			> 100			> 100	> 100	> 100	> 100	> 100										
CCSCN(C)c1nc(N(C)C)nc(N(C)C)n1			> 100			> 100	> 100	> 100	> 100	> 100										
CCCc1c(C(=O)OCC)[nH]c(-c2ccc(-c3[nH]c(C(=O)OCC)c(CCC)c3C(=O)OCC)s2)c1C(=O)OCC			> 100			> 100	> 100	> 100	> 100	> 100										
O=c1[nH]c(=O)n(COCCO)c2ccsc12		> 100	> 100	> 100	> 100	> 100	> 100	> 100	> 100	> 100										
COc1cc(C2C(Cl)C(=O)N2NC(=O)c2ccc(NC(C)=O)cc2)ccc1O (centres undefined)			> 100			> 100	> 100	> 100	> 100	> 100										
CC1(C)CC2(C)CC1CC2(O)c1ccccc1 (centres undefined)	> 100	> 100	> 100		> 100	> 100	> 100	> 100	> 100	> 100										
O=[N+]([O-])c1ccc2oc(=Nc3ccccc3)c(Nc3ccccc3)nc2c1	> 100	> 100	> 100		> 100	> 100	> 100	> 100	> 100	> 100										
CC(=O)OC1C2CCC3C(C)(O)C4CC(O)C(C)(C)C4(O)C(O)CC13CC2(C)O (centres undefined)	> 100	> 100	> 100	> 100	> 100	> 100	> 100	> 100	> 100											
COC(=O)CCc1c(Cc2ccc[nH]2)[nH]c(C(=O)OCc2ccccc2)c1C		28.9	37.5	35.7	60	53.7	32.9	> 100	52.5	38.3										
N=C(N)SCCC(=O)CCSC(=N)N	> 100	> 100		> 100	> 100	> 100	> 100	> 100	> 100											
N#C/C(=C\c1ccc([N+](=O)[O-])s1)c1nc2cc(Cl)ccc2s1	4.97	1.21	2.79		3.42	> 100	1.27	> 100	69.2	0.541	1.88	297	1210	1.31	2510	0.329	3.12	555	202	
CS(=O)(=O)c1nc(-c2cc3c(c(S(C)(=O)=O)n2)CCC3)cc2c1CCCC2		> 100	> 100		> 100	24.4	> 100	> 100	57.9											
C=C(C)C1CC/C(C)=C/CC[C@]2(C)O[C@@H]2CCC2=CC1OC2=O (some centres undefined)	> 100			> 100	> 100	> 100	> 100	> 100	> 100		18.5			48.9	> 100000	27.6	23.4	> 100000		> 100
CN(C)CCNC(=O)c1cccc2cc3cc(O)ccc3nc12			4.23	6.47		5.66	5.73	3.47	3.34	2.54										
O=NN(CCF)C(=O)NC1CC2CCC1C2 (centres undefined)			> 100	> 100		> 100	> 100	> 100	> 100	> 100										
O=c1c2ccccc2nc(-c2ccccc2)n1NC(=S)Nc1ccc(Cl)cc1			> 100			> 100	> 100	> 100	> 100	> 100										
CN(C)c1ccc(/C=C/C(=O)N[C@@H]2C(=O)N3[C@@H]2SC(C)(C)[C@@H]3C(=O)O)cc1	> 100	> 100	> 100	> 100	> 100	> 100	> 100	> 100	> 100											
